Data set [1] concerns MGC-803. Kind of data set: Induction of apoptosis in human MGC803 cells assessed as apoptosis ratio at 10 uM after 36 hrs using annexin-V and propidium iodide staining by flow cytometry. Format: functional. In general terms: Flow cytometry measures light scatter and fluorescence of single cells or particles in a stream.
Data set [2] relates to MGC-803. Put plainly: Induction of apoptosis in human MGC803 cells assessed as apoptotic cells at 5 uM after 12 to 48 hrs using Hoechst 33258 staining by fluorescence microscopic analysis. Format: functional, cell-based.
Data set [3] has as its system MCF7. Kind of data set: Selectivity index, ratio of IC50 for mouse NIH/3T3 cells to IC50 for human MCF7 cells. In kind it is functional.
Data set [4] concerns Bcap37. Kind of data set: Ratio of betulin IC50 to compound IC50 for human Bcap37 cells. In kind it is functional.
The test system of data set [5] is PC-3. Put plainly: Cytotoxicity against human PC3 cells after 72 hrs by MTT assay. In kind it is functional, cell-based. The note with it: for pIC50: PC-3, 72 h. Background: Tetrazolium dyes change colour on reduction, which living cells bring about.
Data set [6] deals with MCF7. Put plainly: Ratio of betulin IC50 to compound IC50 for human MCF7 cells. Format: functional.
Data set [7] concerns MGC-803. Put plainly: Induction of apoptosis in human MGC803 cells assessed as chromatin condensation at 5 uM after 12 to 48 hrs using Hoechst 33258 staining by fluorescence microscopic analysis. In kind it is functional, cell-based.
Data set [8] has as its system Bcap37. Kind of data set: Cytotoxicity against human Bcap37 cells after 72 hrs by MTT assay. In kind it is functional, cell-based. The note with it: for pIC50: Bcap37, 72 h.
The test system of data set [9] is MGC-803. Kind of data set: Induction of apoptosis in human MGC803 cells assessed as formation of nicks in DNA at 5 uM after 48 hrs by TUNNEL assay. Format: functional, cell-based.
Data set [10] relates to MGC-803. Put plainly: Induction of apoptosis in human MGC803 cells assessed as apoptosis ratio at 10 uM using annexin-V and propidium iodide staining by flow cytometry. Format: functional, cell-based. The following applies: TDE = time-dependent effect.
Data set [11] deals with MGC-803. Put plainly: Cytotoxicity against human MGC803 cells after 72 hrs by MTT assay. In kind it is functional, cell-based. The note with it: for pIC50: MGC-803, 72 h.
In data set [12] the test system is MGC-803. Put plainly: Induction of apoptosis in human MGC803 cells assessed as cell budding at 5 uM after 12 to 48 hrs using acridine orange/ethidium bromide staining by fluorescence microscopic analysis. In kind it is functional, cell-based.
Data set [13] relates to MGC-803. Put plainly: Ratio of betulin IC50 to compound IC50 for human MGC803 cells. Format: functional.
Data set [14] relates to MGC-803. Put plainly: Selectivity index, ratio of IC50 for mouse NIH/3T3 cells to IC50 for human MGC803 cells. In kind it is functional.
In data set [15] the test system is A-375. Kind of data set: Cytotoxicity against human A375 cells after 72 hrs by MTT assay. In kind it is functional, cell-based. The note with it: for pIC50: A-375, 72 h.
Data set [16] deals with PC-3. Put plainly: Selectivity index, ratio of IC50 for mouse NIH/3T3 cells to IC50 for human PC3 cells. Format: functional.
The test system of data set [17] is MGC-803. Put plainly: Induction of apoptosis in human MGC803 cells assessed as membrane blebbing at 5 uM after 12 to 48 hrs using acridine orange/ethidium bromide staining by fluorescence microscopic analysis. Format: functional, cell-based.
For data set [18], the system named is Bcap37. Kind of data set: Selectivity index, ratio of IC50 for mouse NIH/3T3 cells to IC50 for human Bcap37 cells. In kind it is functional.
A short description of data set [19]: Cytotoxicity against mouse NIH/3T3 cells after 72 hrs by MTT assay. Format: cell-based. The note with it: nih3t3, 72 h.
In data set [20] the test system is A-375. Put plainly: Selectivity index, ratio of IC50 for mouse NIH/3T3 cells to IC50 for human A375 cells. In kind it is functional.
The test system of data set [21] is PC-3. Kind of data set: Ratio of betulin IC50 to compound IC50 for human PC3 cells. Format: functional.
For data set [22], the system named is MGC-803. Put plainly: Induction of apoptosis in human MGC803 cells assessed as apoptotic bodies at 5 uM after 12 to 48 hrs using Hoechst 33258 staining by fluorescence microscopic analysis. Format: functional, cell-based.
The test system of data set [23] is MCF7. Kind of data set: Cytotoxicity against human MCF7 cells after 72 hrs by MTT assay. Format: functional, cell-based. The following applies: for pIC50: MCF7, 72 h.
Data set [24] relates to A-375. Put plainly: Ratio of betulin IC50 to compound IC50 for human A375 cells. In kind it is functional.
Data set [25] deals with MGC-803. Put plainly: Induction of apoptosis in human MGC803 cells assessed as pyknosis at 5 uM after 12 to 48 hrs using acridine orange/ethidium bromide staining by fluorescence microscopic analysis. In kind it is functional, cell-based.
The subject of data set [26] is MGC-803. Kind of data set: Induction of apoptosis in human MGC803 cells assessed as compact and condensed chromatin at 10 uM after 48 hrs using Hoechst 33258 staining by fluorescence microscopic analysis. In kind it is functional, cell-based.
Data set [27] concerns MGC-803. Put plainly: Induction of apoptosis in human MGC803 cells assessed as formation of nicks in DNA at 10 uM after 48 hrs by TUNNEL assay. In kind it is functional, cell-based.

pIC50: −log10 of the molar value. Active and inactive are the calls of the source. The rule behind the calls is not given here. A value given as a limit tells only on which side of the number the result lay.

Results on four compounds are retold here after ChEMBL document CHEMBL3616471, “Synthesis and in vitro antitumor evaluation of betulin acid ester derivatives as novel apoptosis inducers” (Eur J Med Chem, 2015).

The pIC50 is the negative decadic logarithm of the IC50, by convention in mol/L. A low value points to a large IC50.

Consider `C=C(C)[C@@H]1CC[C@]2(COC(=O)CCC(=O)N3CCCCC3)CC[C@]3(C)[C@H](CC[C@@H]4[C@@]5(C)CC[C@H](O)C(C)(C)[C@@H]5CC[C@]43C)[C@@H]12`, for which the Activity in [1] was 31.11%; in [5], “Dose-dependent effect”; in data set [8], “Dose-dependent effect”; in data set [10] it was “tde”; in [11] it was “Dose-dependent effect”; in [15] it was “Dose-dependent effect”. For the same compound, the Activity result is “Non-toxic” in data set [19] and “Dose-dependent effect” in data set [23]. Also, the result in data set [2], in [7], in data set [9], in [12], in data set [17] and in data set [22] was Active. For the same compound, in [25], the result was Active. For the same compound, the “Ratio IC50” value in data set [3] was 6.8; in [4], 4; in [6], 4; in data set [13], 4; in data set [14], 8.23; in [16] it was 7.86. Also, the “Ratio IC50” value in data set [18] was found to be 6.81; in data set [20], 4.72; in data set [21] it was 4; in data set [24], 4. For the same compound, the pIC50 in [5] was 5.35; in data set [8], 5.28; in [11] it was 5.37; in [15], 5.12; in data set [23], 5.28.
For `C=C(C)[C@@H]1CC[C@]2(COC(=O)/C=C/C(=O)O)CC[C@]3(C)[C@H](CC[C@@H]4[C@@]5(C)CC[C@H](O)C(C)(C)[C@@H]5CC[C@]43C)[C@@H]12`, the “Ratio IC50” value in [3], in data set [14], in [16], in [18] and in [20] was greater than 3 throughout. The pIC50 in data set [5] was 4.59; in data set [8], 4.74; in data set [11] it was 4.67; in [15], 4.63; in data set [23], 4.77. Besides, the Activity result in [19] is on record as “Toxic”.
With `CC[C@@]1(O)C(=O)OCc2c1cc1n(c2=O)Cc2cc3cc(O)ccc3nc2-1`, the outcome in data set [26] and in data set [27] was Active.
Take `C=C(C)[C@@H]1CC[C@]2(COC(=O)CCC(=O)N(CC)CC)CC[C@]3(C)[C@H](CC[C@@H]4[C@@]5(C)CC[C@H](O)C(C)(C)[C@@H]5CC[C@]43C)[C@@H]12`: the “Ratio IC50” value came to 6.73 in data set [3]; 7.29 in data set [14]; 6.45 in [16]; 9.25 in [18]; 6.01 in [20]. The pIC50 in data set [5] is 5.02; in data set [8] it was 5.17; in [11], 5.07; in data set [15], 4.99; in data set [23] it was 5.04. Also, in data set [19], the Activity entry is listed as “Non-toxic”.
